Measurements published in PubChem BioAssay (NCI).
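Grown in 96-well plates, cells were treated for 48 hours with each compound at five concentrations. Insufficient inhibition: endpoint recorded as highest concentration tested. TGI: concentration producing complete growth inhibition.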

Columns and labels:
Experiment in all cases: inhibition of tumour cell growth, NCI panel, 48 h
[1] = system: HOP-62 NSCLC
[2] = system: CAKI-1 renal
[3] = system: HCT-15 colon
[4] = system: LOX IMVI melanoma
[5] = system: OVCAR-8 ovarian
[6] = system: HT29 colon
[7] = system: MDA-MB-231 breast
[8] = system: TK-10 renal
[9] = system: MOLT-4 leukemia
[10] = system: HL-60(TB) leukemia
[11] = system: M14 melanoma
[12] = system: K-562 leukemia
[13] = system: UO-31 renal
[14] = system: EKVX NSCLC
[15] = system: NCI-H226 lung
[16] = system: SK-MEL-2 melanoma
[17] = system: HOP-92 NSCLC
[18] = system: HCC-2998 colon
[19] = system: A549 NSCLC
[20] = system: HCT-116 colon
[21] = system: MDA-MB-435
[22] = system: SNB-19 CNS
[23] = system: SF-295 CNS
[24] = system: HS 578T breast
[25] = system: SK-OV-3 ovarian
[26] = system: SNB-75 CNS
[27] = system: RPMI-8226 leukemia
[28] = system: SN12C renal
[29] = system: BT-549 breast
[30] = system: UACC-62 melanoma
[31] = system: ACHN renal
[32] = system: T-47D breast
[33] = system: CCRF-CEM leukemia
[34] = system: SF-539 CNS
[35] = system: SR leukemia
[36] = system: OVCAR-3 ovarian
[37] = system: 786-0 renal
[38] = system: RXF 393 renal
[39] = system: SK-MEL-5 melanoma
[40] = system: NCI-H460 lung
[41] = system: DU-145 prostate
[42] = system: A498 renal
[43] = system: OVCAR-5 ovarian
[44] = system: KM12 colon
[45] = system: NCI-H23 lung
[46] = system: SF-268 CNS
[47] = system: MDA-N
[48] = system: MCF7 breast
[49] = system: COLO 205 colon
[50] = system: SW-620 colon
[51] = system: PC-3 prostate
[52] = system: SK-MEL-28 melanoma
[53] = system: IGROV1 ovarian
[54] = system: U251 CNS
[55] = system: OVCAR-4 ovarian
[56] = system: UACC-257 melanoma
[57] = system: NCI/ADR-RES ovarian
[58] = system: NCI-H522 lung
[59] = system: MALME-3M melanoma

Molecule `O=C(Cc1ccc(OCc2cccc(Cl)c2)cc1)NO` has a TGI [1] greater than 100 µM, a TGI [2] of 68.2 µM and a TGI [3] greater than 100 µM. The TGI [4] was 49 µM, the TGI [5] was 34.5 µM and the TGI [6] was greater than 100 µM. The TGI [7] was greater than 100 µM, the TGI [8] was greater than 100 µM and the TGI [9] was 33.1 µM. It also gave a TGI [10] of 44.9 µM, a TGI [11] greater than 100 µM and a TGI [12] greater than 100 µM. It also gave a TGI [13] of 50.4 µM, a TGI [14] greater than 100 µM and a TGI [15] of 65.4 µM. For the same molecule, the TGI [16] was greater than 100 µM, the TGI [17] was greater than 100 µM and the TGI [18] was greater than 100 µM. It also gave a TGI [19] greater than 100 µM, a TGI [20] greater than 100 µM and a TGI [21] greater than 100 µM. It also gave a TGI [22] greater than 100 µM, a TGI [23] greater than 100 µM and a TGI [24] greater than 100 µM. The TGI [25] was greater than 100 µM, the TGI [26] was greater than 100 µM and the TGI [27] was 50.8 µM. For the same molecule, the TGI [28] was 76.5 µM, the TGI [29] was greater than 100 µM and the TGI [30] was 55.4 µM. It also gave a TGI [31] of 86 µM, a TGI [32] of 46.2 µM and a TGI [33] of 42.5 µM. The TGI [34] was greater than 100 µM, the TGI [35] was 32.5 µM and the TGI [36] was greater than 100 µM. The TGI [37] was 43.5 µM, the TGI [38] was greater than 100 µM and the TGI [39] was greater than 100 µM. The TGI [40] was greater than 100 µM, the TGI [41] was 66.2 µM and the TGI [42] was 27 µM. For the same molecule, the TGI [43] was greater than 100 µM, the TGI [44] was greater than 100 µM and the TGI [45] was greater than 100 µM. The TGI [46] was greater than 100 µM, the TGI [47] was greater than 100 µM and the TGI [48] was greater than 100 µM. For the same molecule, the TGI [49] was greater than 100 µM, the TGI [50] was greater than 100 µM and the TGI [51] was greater than 100 µM. The TGI [52] was greater than 100 µM, the TGI [53] was greater than 100 µM and the TGI [54] was greater than 100 µM. It also gave a TGI [55] of 82.7 µM, a TGI [56] greater than 100 µM and a TGI [57] of 39.3 µM. It also gave a TGI [58] greater than 100 µM.

In the case of `O=C1C=CC(=O)N1n1c(Cc2ccccc2)n[nH]c1=O`, the TGI [1] is reported as greater than 100 µM, the TGI [2] is reported as greater than 100 µM and the TGI [3] is reported as greater than 100 µM. For the same molecule, the TGI [4] was greater than 100 µM, the TGI [5] was greater than 100 µM and the TGI [6] was greater than 100 µM. It also gave a TGI [7] greater than 100 µM, a TGI [8] greater than 100 µM and a TGI [9] greater than 100 µM. For the same molecule, the TGI [10] was greater than 100 µM, the TGI [12] was greater than 100 µM and the TGI [13] was greater than 100 µM. It also gave a TGI [14] greater than 100 µM, a TGI [15] greater than 100 µM and a TGI [16] greater than 100 µM. The TGI [17] was greater than 100 µM, the TGI [18] was greater than 100 µM and the TGI [19] was greater than 100 µM. It also gave a TGI [20] greater than 100 µM, a TGI [21] greater than 100 µM and a TGI [22] greater than 100 µM. It also gave a TGI [23] greater than 100 µM, a TGI [24] greater than 100 µM and a TGI [25] greater than 100 µM. It also gave a TGI [27] greater than 100 µM, a TGI [28] greater than 100 µM and a TGI [29] greater than 100 µM. It also gave a TGI [30] greater than 100 µM, a TGI [31] greater than 100 µM and a TGI [32] greater than 100 µM. The TGI [33] was greater than 100 µM, the TGI [34] was greater than 100 µM and the TGI [35] was greater than 100 µM. It also gave a TGI [36] greater than 100 µM, a TGI [37] greater than 100 µM and a TGI [38] greater than 100 µM. It also gave a TGI [39] greater than 100 µM, a TGI [40] greater than 100 µM and a TGI [41] greater than 100 µM. It also gave a TGI [59] greater than 100 µM, a TGI [42] greater than 100 µM and a TGI [43] greater than 100 µM. It also gave a TGI [44] greater than 100 µM, a TGI [45] greater than 100 µM and a TGI [46] greater than 100 µM. The TGI [47] was greater than 100 µM, the TGI [48] was greater than 100 µM and the TGI [49] was greater than 100 µM. It also gave a TGI [50] greater than 100 µM, a TGI [51] greater than 100 µM and a TGI [52] greater than 100 µM. It also gave a TGI [53] greater than 100 µM, a TGI [54] greater than 100 µM and a TGI [55] greater than 100 µM. It also gave a TGI [56] greater than 100 µM, a TGI [57] greater than 100 µM and a TGI [58] greater than 100 µM.
